# Measured values: EP3324923B1, “COMPOSITIONS AND METHODS USING PALYTHINE” (King's College London, priority 2015, dated 2017)
# What was measured:
# [1] = tested on: HaCaT keratinocytes; assay: Cell viability by neutral red uptake assay after irradiation; format: cell-based, human; conditions: 20J/cm2 of SSR; 0.3 %, 4 % or 10 % (w/v) palythine; 24 hrs later; n=3; p=<0.0001
# Method: All assays were performed on HaCat cells grown as a 70-80 % confluent monolayer in multiwell plates. They were washed three times in PBS and covered with palythine dissolved in PBS at differing concentrations (0, 0.1, 0.3 %, 4 % and 10 % w/v). The cells were then irradiated with either SSR or UVA radiation (5-20 J/cm^2 or 20 J/cm^2 respectively). After irradiation the palythine solution was removed and the cells washed a further three times and replaced in media or processed immediately depending on the experimental design.
# Cell viability was measured 24 hours post irradiation using the neutral red uptake assay. Neutral red solution (4µgml^-1 in growth medium) (Sigma, UK) was added to the cells and they were incubated at 37 °C, 5 % CO2 for 2 hrs. Cells were washed three times in PBS to remove excess neutral red solution and then the destain solution (50 % v/v ethanol, 49 % v/v ddH2O, 1 % v/v glacial acetic acid) was added. Optical density was measured at 540 nm.
# HaCaT keratinocytes were untreated, exposed to 20J/cm2 of SSR with PBS alone, 0.3 % (w/v), 4 % (w/v) or 10 % (w/v) of palythine or 10 % (w/v) palythine without exposure to UVR. Cell viability was measured 24 hrs later by the neutral red assay. Columns represent the mean ± SD (n=3).
# [2] = tested on: HaCaT cells; assay: UVR induced gene expression by qPCR (TaqMan, ΔΔCT); format: cell-based, human
# Method: The gene expression analysis was performed on HaCat cells exposed as previously described. Following irradiation growth media was replaced RNA extraction was carried out 12 hours later. RNA extraction was carried out using the mirVana miRNA Isolation kit (Life Technologies, Paisley, UK) according to the manufacturers protocol for total RNA extraction. RNA quality was tested using RNA 6000 Nano Kit according to the manufacturers instruction.
# Total RNA was then converted to cDNA using the High Capacity cDNA Reverse Transcription Kit (Applied Biosystems, Paisley, UK) according to manufacturers instructions. qPCR was performed using TaqMan Gene Expression Assays (Applied Biosystems) according to the manufacturers protocol with the following TaqMan FAM labelled DNA probes IL-20, IL-8, IL-6, TFRC, HMOX-1, MMP-3, MMP-12. VIC labelled GAPDH was used as the housekeeping gene. For each gene the fold change was measured using the ΔΔCT method.
# Cells irradiated with 5J/cm^2 SSR with 0%, 0.3%, 4% and 10% palythine. RNA was extracted, cDNA synthesised, and gene expression analysed by qCR. […] The mean fold change ± SD was analysed with n≥3. The difference compared to 0% irradiated sample was analysed using ANOVA. Significance is expressed by *.
# Cells irradiated with 5J/cm^2 SSR with 0%, 0.3% & 4% palythine or Helionori. RNA was extracted, cDNA synthesised, and gene expression analysed by qPCR. Data presented in figure 13 show the protection offered by palythine according to the invention compared with protection offered by prior art composition Helionori, as assessed by UVR induced gene expression.
# DNA damage was then measured using the comet assay and IHC-IF looking at the specific DNA lesions of cyclobutane pyrimidine dimers (CPD) and 8-oxoGua. A percentage reduction in general and specific DNA damage was then determined by comparing cells irradiated with and without sunscreen compositions. Antioxidant ability was detected using H2DCFDA, which fluoresces when reacting with ROS with the addition of palythine post exposure. SSR induced gene expression covering a range of different markers (inflammation, photoageing, oxidative damage) was assessed using qPCR. The ability of palythine to reduce this gene expression was then assessed.
# [3] = Figure 8, RNA extraction 12 hours after irradiation, gene not responsive to UVR
smiles,measurement,setting,value
COC1=C(NCC(=O)O)CC(O)(CO)CC1=N (stereo not shown) [palythine],protection against UVR induced cell death (cell viability),[1],significant protection
same,"protection, UVR induced gene expression (decrease compared to the irradiated control)","[2]; 0.3% palythine, 5J/cm^2 SSR, figure 13",significant protection
same,HMOX-1 gene expression,"[2]; 0.3 % palythine, Figure 8, compared to the control",significantly reduced
same,MMP-12 gene expression compared to the control,[2]; [3],no effect
same,TFRC gene expression compared to the control,[2]; [3],no effect
same,expression of the genes compared to the irradiated control (containing no sunscreen),"[2]; IL-20, IL-6, IL-8, MMP-3, HMOX-1, 5J/cm^2 SSR, 0.3% & 4%",significant reduction
same,SSR induced differential gene expression for all markers investigated,"[2]; palythine at 0.3% or greater, all concentrations, p=<0.05",significantly reduced
